Test results taken from patent publication US20150202179A1, “FATTY ACID DERIVATIVES FOR USE IN A METHOD OF TREATING DEPRESSION AND ASSOCIATED CONDITIONS” (YISSUM RESEARCH DEVELOPMENT COMPANY OF THE HEBREW …, priority 2012, published 2015).

Columns and labels:
[1] = Body weight of C57BL/6 mice; assay type: in vivo
Excerpt: (§1) Thus the compounds of the invention can be used to treat conditions that are mediated by the enhancement of leptin levels. In obesity there is high leptin level however the leptin receptors are not responding. High CNS leptin level has anti-depression effect however, if there is tolerance there is no anti depression effect.

[2] = Weight and food consumption in OB/OB mice which lack the leptin gene; assay type: in vivo
Excerpt: as §1

[3] = Weight and food consumption in Sabra mice; assay type: in vivo
Protocol: 140 Female Sabra Mice 12 weeks old are divided to […] 10 mice in each group with equal weight. Mice are administered I.P. with either saline or 1 mg/kg Fluoxetine (PROZAC), compound 1, 4, 5, 7, 10, 11, 12, 13, 14, 15, 19, 26 for a 4 weeks period. On day 30 and on, mice were tested by the following behavioral tests. […]

[4] = Open Field Test, compound X dose study; assay type: in vivo, BALB/c mice; details: 10 mg/kg i.p.; day 25; better than the other concentrations
Protocol: (§2) 50, 2 month old BALB/c mice, 10 mice per group, on ad libitum diet were divided to 5 experimental groups with equal weight. On the 2, 3, 4, 5, 9, 11, 16, 18, 23, 25, 29, 31 days mice were administered with either vehicle or compound x 0.1, 1, 10 mg/kg i.p. or imipramine 10 mg/kg Open Field Test was evaluated on day 25. The more time they spent on the periphery the less depressed.

[5] = system: p-SAPK/JNK; experiment: p-SAPK/JNK levels in the hypothalamus; assay type: in vivo, BALB/c mice; details: FIG. 16
Excerpt: (§3) 50, 2 month old female BALB/c mice, 10 mice per group, on ad libitum diet were separated (each mouse in a different cage) for 9 days (Separation Stress, a model for depression).

[6] = Forced Swim Test, compound X dose study; assay type: in vivo, BALB/c mice; details: day 11
Protocol: Forced swim test (FST): The animal is placed in a circular, transparent, plexiglass tank measuring 21 cm in diameter and 46 cm in height containing water 15 cm high, maintained at 23-25° C. […] Also measured is the latency period, the time elapsing, for each animal from immersion in the water tank until the first occurrence of immobility. Since climbing activity is minimal in mice, […].
as §2, with “compound X” for “compound x”, “10 mg/kg. Forced Swim” for “10 mg/kg Open Field”, “day 11.” for “day 25. The more time they spent on the periphery the less depressed.”

[7] = system: NPY protein; experiment: NPY protein expression by western blot; assay type: in vivo, BALB/c mice; details: FIG. 13
Protocol: (§4) 50, 2 month old female BALB/c mice, 10 mice per group, on ad libitum diet were separated (each mouse in a different cage) for 9 days (Separation Stress, a model for depression). On the 7, 8, 9, 34-40 days mice were administered with either vehicle or compounds X, 12 and 15 (1 mg/kg i.p.) or imipramine 10 mg/kg (antidepressant).

[8] = Tail Suspension Test, separated BALB/c mice (model for depression); assay type: in vivo; details: compounds 1 mg/kg i.p., imipramine 10 mg/kg i.p.; day 7; in relation to vehicle
Excerpt: Tail suspension test (TST): Animals are suspended upside down by adhesive tape placed 1 cm from the tail tip. The elevation of the animal is 50 cm from the nearest surface. […] Statistical analysis compares the magnitude of immobility (in seconds) between different treatment groups. In this test, antidepressants characteristically cause an increase of the time fraction spent by the animal as active at the expense of the inactivity period.
50, 2 month old female BALB/c mice were separated (each mouse in a different cage) for 9 days period (a model for depression). On days 7, 8, 9, 34-40 mice were administered with either vehicle or compounds X, 12 and 15 (1 mg/kg i.p.) or imipramine 10 mg/kg (anti-depressant) i.p. and tested in the Tail suspension test on day 7 of the experiment (10 mice per group).

[9] = system: POMC protein; experiment: POMC protein expression by western blot; assay type: in vivo, BALB/c mice
Protocol: as §4, with “x,” for “X,”, “(antidepressant). POMC protein was monitored by western blot.” for “(antidepressant).”

[10] = system: leptin; experiment: Leptin levels in the hypothalamus; assay type: in vivo, BALB/c mice; details: FIG. 15
Excerpt: as §3

CCCCCCCC/C=C\CCCCCCCC(=O)N[C@H](CO)C(C)C [Compound 1, oleoyl-L-valinol amide]
body weight [1]: decreased body weight
food consumption [2]: did not change
weight (weight loss) [2]: did not change
weight (weight loss) ([2]; listed as OVA): not body weight
weight (weight loss) ([2]; listed as X): do not produce weight loss
food consumption [3]: significant decrease
weight (weight loss) [3]: significant decrease
weight (weight loss) ([3]; listed as OVA): decreased body weight
weight (weight loss) ([3]; listed as X): significant weight loss
motor activity in Open Field Test [4]: improved motor activity like the impramine
p-SAPK/JNK levels in the hypothalamus [5]: significant decrease
swimming activity in forced swim test ([6]; 0.1 mg/kg i.p.): improved significantly swimming activity
swimming activity in forced swim test ([6]; 1 mg/kg i.p., better than imipramine 10 mg/kg): improved significantly swimming activity
swimming activity in forced swim test ([6]; 10 mg/kg i.p., better than imipramine 10 mg/kg): improved significantly swimming activity
NPY protein expression in the hypothalamus [7]: decrease significantly
activity in Tail Suspension Test [8]: significantly enhanced activity
POMC protein expression in the hippocampus ([9]; hippocampus, FIG. 12): increased significantly
POMC protein expression in the hypothalamus ([9]; hypothalamus, FIG. 11): increased significantly
leptin levels in the hypothalamus [10]: tendency to increase
